Assays:
[1] = test system: IL-1beta release from a mouse microglial cell line; assay: Interleukin-1 beta microglial cell assay; format: cell-based; conditions: LPS and IFN gamma stimulation, 24 hours, read-out: inhibition of IL-1beta induction, EC50
Experimental: This assay measures the release of IL-1β from a mouse microglial cell line following an inflammatory challenge with LPS and interferon-gamma. The ability of test articles to inhibit microglial cell activation and IL-1beta release is determined by co-incubation of the test article with the inflammatory challenge. Cytokine release is measured using a mouse IL-1β ELISA and cell toxicity is determined using Cell Tracker Green (a fluorescent dye that measures cell viability).
Mouse microglial cells were seeded in poly-D-lysine coated 96-well plates at a density of 10,000 cells/well and allowed to attach for 24 hours. Cells were stimulated by addition of LPS (10 μg/ml) and IFN gamma (10 ng/ml) in the presence or absence of test article. The cells were then incubated for 24 hours at 37° C., after which time the media was removed and used for cytokine determination as described below.
Viability of mouse microglial cells after exposure to the test article was determined using a fluorescent viability dye, Cell Tracker Green. Cell Tracker Green was used at a working concentration of 5 μM in 1× HBSS. Cells were washed once with HBSS (200 μl/well) and 100 μl Cell Tracker Green was added to each well. Cells were then incubated at 37° C. for 30 minutes, after which time the Cell Tracker was removed and the cells were washed once with HBSS (200 μl/well). 100 μl fresh HBSS was added to each well and the plate was read on a Fluoroskan plate reader using an excitation wavelength of 485 nm and an emission wavelength of 538 nm.
1. The IL-1β capture antibody was reconstituted in 1 ml of PBS to give a final concentration of 720 μg/ml, and the working concentration was 4 μg/ml. For coating one 96-well plate (at 100 μl/well) 56 μl of the 720 μg/ml stock was diluted into 10 ml of PBS. 2. The IL-1β standards were reconstituted in 0.5 ml of Reagent Diluent (70 ng/ml). For a high standard of 1 ng/ml (2 wells at 100 μl each+enough for series dilution) 7.1 μl of the 70 ng/ml standard were diluted into 0.5 ml of Reagent Diluent 3. The IL-1β detection antibody was reconstituted in 1 ml of Reagent Diluent to give a final concentration of 18 μg/ml and the working concentration is 100 ng/ml. For one 96-well plate (at 100 μl/well) 56 μl of the 18 μg/ml stock was diluted into 10 ml of Reagent Diluent.
1. The Costar EIA Hi-binding plate was coated with capture antibody at 4 μg/ml. Each well was coated with 100 μl, and the plate was sealed and incubated overnight at room temperature.
2. Each well was aspirated and washed 3× with Wash Buffer. Each well was filled to the top, dispensed, and any remaining buffer was removed by inverting the plate and gently blotting against clean paper towels.
3. Non-specific binding sites were blocked by adding 300 μl of Blocking Buffer to each well, and after sealing incubating for at least 1 hour at room temperature.
5. 100 μl of either standard or sample were added in each well of the capture-coated and pre-blocked plate. The plate was sealed and incubated for 2 hours at room temperature, followed with washing as in step 2.
6. 100 μl of the detection antibody ([…]) were added to each well.
7. The plate was sealed and incubated at room temperature for 2 hours, followed with washing as in step 2.
8. 100 μl of the working dilution of Streptavidin-HRP was added, and the plate was sealed and incubated in the dark for 20 minutes at room temperature, followed with washing as in Step 2.
9. The fresh Substrate Solution was prepared by mixing Color Reagent A (H2O2) and Color Reagent B (Tetramethylbenzidine) in a 1:1 ratio. 100 μl of this Substrate Solution mixture was added to each well and the plate was incubated in the dark for 20 minutes at room temperature. 10. 50 μl of Stop Solution was added to each well, mixing was ensured by gently tapping. 11. Each plate was read with the Spectramax once at 450 nm. Results

[2] = test system: ELAM (E-selectin) expression in endothelial cells; assay: E-selectin (ELAM) cell inflammation assay; format: cell-based; conditions: LPS and IL-1β stimulation, read-out: reduction of expression of ELAM, EC50
Experimental: Endothelial-Leukocyte Adhesion Molecule (ELAM), also known as E-selectin, is expressed on the surface of endothelial cells. In this assay, lipopolysaccharide (LPS) and IL-1β are used to stimulate the expression of ELAM; test agents are tested for their abilities to reduce this expression, in accordance with studies showing that reduction of leukocyte adhesion to endothelial cell surface is associated with decreased cellular damage (e.g., Takada, M., Et al., Transplantation 64: 1520-25, 1997; Steinberg, J. B., et al., J. Heart Lung Trans. 13:306-313, 1994).
Endothelial cells may be selected from any of a number of sources and cultured according to methods known in the art; including, for example, coronary artery endothelial cells, human brain microvascular endothelial cells (HBMEC; Hess, D.C., et al., Neurosci. Left. 213(1): 37-40, 1996), or lung endothelial cells. Cells are conveniently cultured in 96-well plates. Cells are stimulated by adding a solution to each well containing 10 μg/ml LPS and 100 pg/ml IL-1β for 6 hours in the presence of test agent (specific concentrations and time may be adjusted depending on the cell type). Treatment buffer is removed and replaced with pre-warmed Fixing Solution® (100 μl/well) for 25 minutes at room temperature. Cells are then washed 3×, then incubated with Blocking Buffer (PBS+2% FBS) for 25 minutes at room temperature. Blocking Buffer containing Monoclonal E-Selectin Antibody (1:750, Sigma Catalog #S-9555) is added to each well. Plates are sealed and stored at 4° overnight. Plates are washed 4× with 160 μL Blocking Buffer per well. Second Antibody-HRP diluted 1:5000 in Blocking Buffer is then added (100 μL/well), and plates are incubated at room temperature (protected from light) for two hours. Plates are then washed 4× with Blocking Buffer before addition of 100 μL of ABTS Substrate solution at room temperature (Zymed, Catalog #00-2024). Wells are allowed to develop for 35 minutes, before measurement at 402 nm in a Fluoroskan® Reader with shake program for 10 seconds. Positive results are recorded as a decrease in ELAM concentration in tested wells, as compared to control wells.

Row | Compound | EC50 [1] [µM] | EC50 [2] [µM]
1 | CCOC(=O)C1(CSCc2ccccc2)OC(=O)C(O)=C1SCc1ccccc1 (stereo not drawn) [3-Benzylsulfanyl-2-benzylsulfanylmethyl-4-hydroxy-5-oxo-2,5-dihydro-furan-2-carboxylic acid ethyl ester] | ≤ 20 | ≤ 30
2 | CCOC(=O)C1(CSC2CCCCC2)OC(=O)C(O)=C1SC1CCCCC1 (stereo not drawn) [3-Cyclohexylsulfanyl-2-cyclohexylsulfanylmethyl-4-hydroxy-5-oxo-2,5-dihydro-furan-2-carboxylic acid ethyl ester] | ≤ 20 | ≤ 30
3 | CCOC(=O)CSCC1(C(=O)OCC)OC(=O)C(OC(=O)C(C)(C)C)=C1SCC(=O)OCC (stereo not drawn) [4-(2,2-Dimethyl-propionyloxy)-3-ethoxycarbonylmethylsulfanyl-2-ethoxycarbonylmethylsulfanylmethyl-5-oxo-2,5-dihydro-furan-2-carboxylic acid ethyl ester] | ≤ 20 | ≤ 30
4 | CCOC(=O)C1(CSc2nc3ccccc3n2C)OC(=O)C(O)=C1Sc1nc2ccccc2n1C (stereo not drawn) [4-Hydroxy-3-(1-methyl-1H-benzoimidazol-2-ylsulfanyl)-2-(1-methyl-1H-benzoimidazol-2-ylsulfanylmethyl)-5-oxo-2,5-dihydro-furan-2-carboxylic acid ethyl ester] | ≤ 20 | ≤ 30
5 | CCOC(=O)C1(CSc2nc3cc(OC)ccc3s2)OC(=O)C(O)=C1Sc1nc2cc(OC)ccc2s1 (stereo not drawn) [4-Hydroxy-3-(5-methoxy-benzothiazol-2-ylsulfanyl)-2-(5-methoxy-benzothiazol-2-ylsulfanylmethyl)-5-oxo-2,5-dihydro-furan-2-carboxylic acid ethyl ester] | ≤ 20 | ≤ 30
6 | CCOC(=O)C1(CSc2nc3ccc([N+](=O)[O-])cc3s2)OC(=O)C(O)=C1Sc1nc2ccc([N+](=O)[O-])cc2s1 (stereo not drawn) [4-Hydroxy-3-(6-nitro-benzothiazol-2-ylsulfanyl)-2-(6-nitro-benzothiazol-2-ylsulfanylmethyl)-5-oxo-2,5-dihydro-furan-2-carboxylic acid ethyl ester] | ≤ 20 | ≤ 30
7 | CCOC(=O)C1(CSc2ccc(C=CC(=O)OC)cc2)OC(=O)C(O)=C1Sc1ccc(C=CC(=O)OC)cc1 (stereo not drawn) [4-Hydroxy-3-[4-(2-methoxycarbonyl-vinyl)-phenylsulfanyl]-2-[4-(2-methoxycarbonyl-vinyl)-phenylsulfanylmethyl]-5-oxo-2,5-dihydro-furan-2-carboxylic acid ethyl ester] | ≤ 20 | ≤ 30
8 | CCOC(=O)C1(CSc2nc(-c3ccccc3)cs2)OC(=O)C(O)=C1Sc1nc(-c2ccccc2)cs1 (stereo not drawn) [4-Hydroxy-5-oxo-3-(4-phenyl-thiazol-2-ylsulfanyl)-2-(4-phenyl-thiazol-2-ylsulfanylmethyl)-2,5-dihydro-furan-2-carboxylic acid ethyl ester] | ≤ 20 | ≤ 30
9 | CCOC(=O)C1(CSc2nccc(C(F)(F)F)n2)OC(=O)C(O)=C1Sc1nccc(C(F)(F)F)n1 (stereo not drawn) [4-Hydroxy-5-oxo-3-(4-trifluoromethyl-pyrimidin-2-ylsulfanyl)-2-(4-trifluoromethyl-pyrimidin-2-ylsulfanylmethyl)-2,5-dihydro-furan-2-carboxylic acid ethyl ester] | ≤ 20 | ≤ 30

— patent US7985771B2, “Furanone derivatives” (Monsanto Technology LLC, priority 2002, dated 2011)
